Converted amounts (≈) assume the structure as drawn.
Experiments:
Saccharomyces cerevisiae [1] = test: Antifungal activity against Saccharomyces cerevisiae assessed as 99.9 % growth inhibition after 18 hrs by zone-of-inhibition assay; type: functional
Cryptococcus neoformans [2] = test: Antifungal activity against Cryptococcus neoformans after 18 hrs by zone-of-inhibition assay; type: functional, organism-based; settings: for IC50: Cryptococcus neoformans, 18 h
Mycobacterium avium = test: Antimicrobial activity against Mycobacterium avium after 18 hrs by zone-of-inhibition assay; type: functional, organism-based
Candida albicans [3] = test: Antifungal activity against Candida albicans after 18 hrs by zone-of-inhibition assay; type: functional, organism-based; settings: for IC50: Candida albicans, 18 h
Staphylococcus aureus [4] = test: Antimicrobial activity against Staphylococcus aureus after 18 hrs by zone-of-inhibition assay; type: functional, organism-based
Aspergillus niger [5] = test: Antifungal activity against Aspergillus niger assessed as 99.9 % growth inhibition after 18 hrs by zone-of-inhibition assay; type: functional
KB = test: Cytotoxicity against human KB cells; type: functional, cell-based
[6] = tested on: Mycolicibacterium smegmatis; test: Antimicrobial activity against Mycobacterium smegmatis assessed as 99.9 % growth inhibition after 18 hrs by zone-of-inhibition assay; type: functional
Aspergillus niger [7] = test: Antifungal activity against Aspergillus niger after 18 hrs by zone-of-inhibition assay; type: functional, organism-based
Candida albicans [8] = test: Antimicrobial activity against Candida albicans assessed as 99.9 % growth inhibition after 18 hrs by zone-of-inhibition assay; type: functional
LNCaP = test: Cytotoxicity against human LNCAP cells; type: functional; settings: read-out: ED50 (the source's name)
Cryptococcus neoformans [9] = test: Antifungal activity against Cryptococcus neoformans assessed as 99.9 % growth inhibition after 18 hrs by zone-of-inhibition assay; type: functional
Saccharomyces cerevisiae [10] = test: Antifungal activity against Saccharomyces cerevisiae after 18 hrs by zone-of-inhibition assay; type: functional, organism-based
[11] = tested on: Mycolicibacterium smegmatis; test: Antimicrobial activity against Mycobacterium smegmatis after 18 hrs by zone-of-inhibition assay; type: functional, organism-based
Micrococcus luteus [12] = test: Antimicrobial activity against Micrococcus luteus after 18 hrs by zone-of-inhibition assay; type: functional, organism-based
Staphylococcus aureus [13] = test: Antimicrobial activity against Staphylococcus aureus assessed as 99.9 % growth inhibition after 18 hrs by zone-of-inhibition assay; type: functional
[14] = Cytotoxicity against human HUVEC; type: cell-based; settings: HUVEC cells, read-out: ED50 (the source's name)
Lu1 = test: Cytotoxicity against human Lu1 cells; type: functional; settings: read-out: ED50 (the source's name)
Micrococcus luteus [15] = test: Antimicrobial activity against Micrococcus luteus assessed as 99.9 % growth inhibition after 18 hrs by zone-of-inhibition assay; type: functional
[16] = read-out: ED50 (the source's name)

| SMILES | Activity (Saccharomyces cerevisiae [1]) [µg/mL] | IC50 (Cryptococcus neoformans [2]) [µg/mL] | IC50 (Mycobacterium avium) [µg/mL] | IC50 (Candida albicans [3]) [µg/mL] | IC50 (Staphylococcus aureus [4]) [µg/mL] | Activity (Aspergillus niger [5]) [µg/mL] | EC50 (KB; [16]) [µg/mL] | Activity [6] [µg/mL] | IC50 (Aspergillus niger [7]) [µg/mL] | Activity (Candida albicans [8]) [µg/mL] | EC50 (LNCaP) [µg/mL] | Activity (Cryptococcus neoformans [9]) [µg/mL] | IC50 (Saccharomyces cerevisiae [10]) [µg/mL] | IC50 [11] [µg/mL] | IC50 (Micrococcus luteus [12]) [µg/mL] | Activity (Staphylococcus aureus [13]) [µg/mL] | CC50 [14] [µg/mL] | EC50 (Lu1) [µg/mL] | Activity (Micrococcus luteus [15]) [µg/mL] | further results |
| --- | --- | --- | --- | --- | --- | --- | --- | --- | --- | --- | --- | --- | --- | --- | --- | --- | --- | --- | --- | --- |
| COC1=CC(=O)c2c(O)cc(C)cc2C1=O | 200 | 50 (≈ 229 µM) | 50 (≈ 229 µM) | 100 (≈ 458 µM) | 200 (≈ 917 µM) | >1000 | 1.9 (≈ 8.71 µM) | 800 | 100 (≈ 458 µM) | 800 | 3.4 (≈ 15.6 µM) | 200 | 50 (≈ 229 µM) | 50 (≈ 229 µM) | 50 (≈ 229 µM) | 400 | 2 (≈ 9.17 µM) | 0.2 (≈ 0.917 µM) | 800 |  |
| COC1=CC(=O)c2cc(C)cc(O)c2C1=O | >1000 | > 1000 | 700 (≈ 3210 µM) | > 1000 | > 1000 | >1000 | 2.4 (≈ 11 µM) | >1000 | > 1000 | >1000 | 4.1 (≈ 18.8 µM) | >1000 | > 1000 | > 1000 | 700 (≈ 3210 µM) | >1000 | 5.5 (≈ 25.2 µM) | 1.8 (≈ 8.25 µM) | >1000 |  |
| COc1c(O)cc2ccc(=O)oc2c1OC | >1000 | > 1000 | > 1000 | > 1000 | > 1000 | >1000 | > 5 | >1000 | > 1000 | >1000 | > 5 | >1000 | > 1000 | > 1000 | > 1000 | >1000 | > 5 | > 5 | >1000 |  |
| COC(=O)c1c(O)cc(C)cc1O | >1000 | > 1000 | > 1000 | > 1000 | > 1000 | >1000 | > 5 | >1000 | > 1000 | >1000 | > 5 | >1000 | > 1000 | > 1000 | > 1000 | >1000 | > 5 | > 5 | >1000 |  |
| Cc1cc(O)c2c(c1)[C@@H](O)CCC2=O [4S-SHINANOLONE] | >1000 | > 1000 | > 1000 | > 1000 | > 1000 | >1000 | > 5 | >1000 | > 1000 | >1000 | > 5 | >1000 | > 1000 | > 1000 | > 1000 | >1000 | > 5 | > 5 | >1000 |  |
| C=C(C)[C@@H]1CC[C@]2(CO)CC[C@]3(C)[C@H](CC[C@@H]4[C@@]5(C)CC[C@H](O)C(C)(C)[C@@H]5CC[C@]43C)[C@@H]12 [BETULIN] |  |  |  |  |  |  | > 5 |  |  |  | > 5 |  |  |  |  |  | > 5 | > 5 |  |  |
| CC[C@@]1(O)C(=O)OCc2c1cc1n(c2=O)Cc2cc3ccccc3nc2-1 [CAMPTOTHECIN] |  |  |  |  |  |  |  |  |  |  |  |  |  |  |  |  |  |  |  | EC50 (KB; read-out: EC50): 0.01 µg/mL (≈ 0.0287 µM) |
| C=C(C)[C@@H]1CC[C@]2(C)CC[C@]3(C)[C@H](CC[C@@H]4[C@@]5(C)CC[C@H](O)C(C)(C)[C@@H]5CC[C@]43C)[C@@H]12 [LUPEOL] | >1000 | > 1000 | > 1000 | > 1000 | > 1000 | >1000 | > 5 | >1000 | > 1000 | >1000 | > 5 | >1000 | > 1000 | > 1000 | > 1000 | >1000 | > 5 | > 5 | >1000 |  |
| COc1cc2c[n+](C)c3c4cc5c(cc4ccc3c2cc1OC)OCO5.[Cl-] [NITIDINE CHLORIDE] | 3000 |  | 3000 |  | 300 | >5000 |  | >5000 | 3000 | 200 |  | 300 | 300 | 1000 | 200 | 5000 |  |  | 5000 | Activity (Cryptococcus neoformans [2]): 80 µg/mL; Activity (Candida albicans [3]): 20 µg/mL |
| Cc1cc(O)c2c(c1)C(=O)C=CC2=O [RAMENTACEONE] | 1 | 0.3 (≈ 1.59 µM) | 5 (≈ 26.6 µM) | 0.3 (≈ 1.59 µM) | 200 (≈ 1060 µM) | 300 | 4.1 (≈ 21.8 µM) | 600 | 5 (≈ 26.6 µM) | 20 | 3.7 (≈ 19.7 µM) | 1 | 0.3 (≈ 1.59 µM) | 40 (≈ 213 µM) | 20 (≈ 106 µM) | >1000 | 5.7 (≈ 30.3 µM) | 13.2 (≈ 70.1 µM) | 1000 |  |
| COc1cc2ccc(=O)oc2cc1O [SCOPOLETIN] | >1000 | > 1000 | > 1000 | > 1000 | > 1000 | >1000 | > 5 | >1000 | > 1000 | >1000 | > 5 | >1000 | > 1000 | > 1000 | > 1000 | >1000 | > 5 | > 5 | >1000 |  |
| CC12C(=O)c3cccc(O)c3C(=O)C1CC1=C2C(=O)c2c(O)cccc2C1=O (stereo unspecified) [ZEYLANONE] | 500 | 10 (≈ 26.7 µM) | 200 (≈ 534 µM) | 3 (≈ 8.01 µM) | 6 (≈ 16 µM) | >800 | 2.1 (≈ 5.61 µM) | 400 | 30 (≈ 80.1 µM) | 3 | 3.3 (≈ 8.82 µM) | 100 | 10 (≈ 26.7 µM) | 50 (≈ 134 µM) | 50 (≈ 134 µM) | >800 | 3.3 (≈ 8.82 µM) | 14.5 (≈ 38.7 µM) | >800 |  |
